Measurements from patent US20260167637A1, “NLRP3 INFLAMMASOME INHIBITOR AND USE THEREOF” (TransThera Sciences (Nanjing), Inc., priority 2022, published 2026).
pIC50: −log10 of the molar value.

Experiments:
[1] = Stability in rat liver microsomes; type: in vitro ADME; details: rat liver microsomes 0.5 mg protein/mL, 1 μM test substance, β-NADPH 1 mM, 37° C.; for half-life at 1 μM: read-out: Rat t1/2
Protocol: Experimental Example 2: Evaluation of Stability of Compounds Disclosed Herein in Liver Microsomes
Composition of experimental incubation system:
An appropriate amount of the compound was precisely weighed out and dissolved in DMSO to prepare a 10.0 mM stock solution. The 10.0 mM stock solution was diluted with DMSO to 1.0 mM, and then diluted with phosphate buffer (containing 3 mM MgCl2) to prepare a 10 μM test substance working solution for later use (DMSO content in the reaction system: 0.1%).
An appropriate amount of β-NADPH was precisely weighed out and then prepared into a 5 mM β-NADPH working solution using phosphate buffer (containing 3 mM MgCl2) for later use.
(1) The liver microsomes (20 mg protein/mL) were taken out from a −80° C. freezer and pre-incubated on a 37° C. water bath thermostatic oscillator for 3 min to thaw for later use.
(2) A mixed solution of the incubation system (without β-NADPH) was prepared according to “composition of experimental incubation system” described above, and pre-incubated on a 37° C. water bath thermostatic oscillator for 2 min.
(3) Control group (without β-NADPH): 10 μL of phosphate buffer (containing 3 mM MgCl2) and 40 μL of the mixed solution of the incubation system in step (2) were taken and mixed, and the mixture was vortexed for 30 s and mixed well, resulting in a total reaction volume of 50 μL; the sample was duplicated. The mixture was placed on a 37° C. water bath thermostatic oscillator for incubation, and timing was started, with termination time points set at 0 min and 60 min.
(4) Sample group: 10 μL of the β-NADPH solution (5 mM) and 40 μL of the mixed solution in step (2) were taken and mixed, resulting in a total reaction volume of 50 μL; the mixture was vortexed for 30 s and mixed well; the sample was duplicated. The mixture was placed on a 37° C. water bath thermostatic oscillator for incubation, and timing was started, with termination time points set at 0 min, 5 min, 10 min, 20 min, 30 min, and 60 min.
(5) The mixture was vortexed for 5 min and then centrifuged at 4000 rpm for 10 min.
(6) 50 μL of the supernatant was taken and added to 150 μL of water, and the resulting mixture was vortexed and mixed well before LC/MS/MS analysis.
The half-life (t1/2) and clearance rate (CL) were calculated using the following first-order kinetic formula
Notes: k denotes the slope of the logarithm of the remaining amount of a compound vs. time, and Vd denotes apparent volume of distribution.

[2] = target: T1, hERG potassium ion channel (Homo sapiens, UniProt Q12809); test: Inhibition of hERG potassium ion channel, whole-cell patch clamp in HEK-293 cells; type: cell-based; details: HEK-293 cells stably expressing hERG, tail current, room temperature
T1 construct: expressed in transfected cells
Protocol: Experimental Example 5: Inhibition of hERG Potassium Ion Channel by Compounds
1.1. An HEK-293 cell line stably expressing the hERG potassium channel was cultured at 37° C. with 5% carbon dioxide in DMEM medium containing 10% fetal bovine serum and 0.8 mg/mL G418. The cell density must not exceed 80%.
1.2. Before patch-clamp testing, cells were dissociated with TrypLE™ Express, and 4×10^3 cells were applied to a coverslip. After 18 h, testing was performed.
2.1. Blank control: DMSO stock solution.
2.2. Positive control: An appropriate amount of cisapride was weighed out and prepared into a 10 mM stock solution using dimethyl sulfoxide (DMSO). The stock solution was aliquoted, and the aliquots were stored at −20° C.
2.3. Compound: An appropriate amount of the compound was weighed out, and the required volume of DMSO was calculated using the formula DMSO volume=actual amount×purity (content)/(molecular weight×theoretical concentration), and measured out using a pipette. The compound that had been weighed out was dissolved in the DMSO that had been measured out using a pipette. Meanwhile, the mass of the DMSO was measured. The actual stock solution concentration was calculated based on the amount of DMSO finally used.
Before hERG channel current testing, the blank control stock solution was diluted with an appropriate amount of extracellular liquid to prepare a working solution. The positive control stock solution and the compound stock solution were diluted with an appropriate amount of extracellular liquid to prepare working solutions. […]
Recording electrodes were prepared from capillary glass tubes using a microelectrode puller. […] Under an inverted microscope, a microelectrode manipulator was used to immerse the electrode in extracellular liquid, and the electrode resistance (Rpip) was recorded. […] Then, slow capacitance compensation was performed, and experimental parameters such as membrane capacitance (Cm) and series resistance (Rs) were recorded. […]

T1 sequence (Q12809 whole entry): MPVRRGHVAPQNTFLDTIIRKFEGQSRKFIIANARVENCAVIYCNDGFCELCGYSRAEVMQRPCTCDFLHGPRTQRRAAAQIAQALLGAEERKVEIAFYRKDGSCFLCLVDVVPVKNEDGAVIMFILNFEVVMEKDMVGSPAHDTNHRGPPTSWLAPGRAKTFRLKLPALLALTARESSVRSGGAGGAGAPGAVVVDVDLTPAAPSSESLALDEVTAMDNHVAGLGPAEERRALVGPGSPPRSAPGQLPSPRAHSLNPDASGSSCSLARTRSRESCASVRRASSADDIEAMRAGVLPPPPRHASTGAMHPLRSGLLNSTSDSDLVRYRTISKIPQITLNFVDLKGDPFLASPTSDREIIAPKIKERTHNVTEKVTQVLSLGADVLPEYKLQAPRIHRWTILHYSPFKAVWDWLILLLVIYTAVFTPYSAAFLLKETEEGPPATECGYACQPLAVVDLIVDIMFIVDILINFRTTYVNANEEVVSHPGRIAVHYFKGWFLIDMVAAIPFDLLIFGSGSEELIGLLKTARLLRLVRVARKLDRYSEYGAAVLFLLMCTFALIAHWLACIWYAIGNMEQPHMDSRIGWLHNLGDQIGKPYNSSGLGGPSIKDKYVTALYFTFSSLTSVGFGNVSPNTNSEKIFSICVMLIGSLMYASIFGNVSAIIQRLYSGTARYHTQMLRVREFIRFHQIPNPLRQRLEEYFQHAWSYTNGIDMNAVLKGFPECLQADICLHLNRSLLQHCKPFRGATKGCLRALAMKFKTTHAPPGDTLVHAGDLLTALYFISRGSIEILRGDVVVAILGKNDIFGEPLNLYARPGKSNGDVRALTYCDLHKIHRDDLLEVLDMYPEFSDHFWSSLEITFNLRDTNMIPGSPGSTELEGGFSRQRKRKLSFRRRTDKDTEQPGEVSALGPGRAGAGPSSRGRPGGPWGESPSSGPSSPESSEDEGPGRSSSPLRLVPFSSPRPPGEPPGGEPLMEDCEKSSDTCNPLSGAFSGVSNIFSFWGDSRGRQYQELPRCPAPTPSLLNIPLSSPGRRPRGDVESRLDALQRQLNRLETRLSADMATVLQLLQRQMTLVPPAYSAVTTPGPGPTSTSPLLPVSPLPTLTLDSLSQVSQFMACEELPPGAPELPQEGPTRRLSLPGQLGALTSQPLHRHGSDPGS

Rat t1/2 [1]	microsomal CLint at 1 μM [1]	half-life at 1 μM [1]	SMILES	pIC50 [2]
→∞			C#Cc1ccc(-c2nnc(N[C@@H]3CCCN(C)C3)c(=O)n2C)c(O)c1 [Compound 23, (R)-3-(4-ethynyl-2-hydoxyphenyl)-4-methyl-6-((1-methylpiperidin-3-yl)amino)-1,2,4-triazin-5(4H)-one]	< 5.00
	6.8 µL/min/mg	3.4 h	C#Cc1ccc(-c2nnc(N[C@@H]3CCCN(CCO)C3)cc2C2CC2)c(O)c1 [Compound 45, (R)-2-(4-Cyclopropyl-6-((1-(2-hydroxyethyl)piperidin-3-yl)amino)pyridazin-3-yl)-5-ethynylphenol]	
	3 µL/min/mg	7.7 h	C#Cc1ccc(-c2nnc(N[C@@H]3CCCN(C)C3)cc2C(C)C)c(O)c1 [Compound 81, (R)-5-ethynyl-2-(4-isopropyl-6-((1-methylpiperidin-3-yl)amino)pyridazin-3-yl)phenol]	< 5.00
	8.2 µL/min/mg	2.82 h	C#Cc1ccc(-c2nnc(N[C@@H]3CCCN(C)C3)c(C#N)c2C)c(O)c1 [Compound 103, (R)-6-(4-ethynyl-2-hydroxyphenyl)-5-methyl-3-((1-methylpiperidin-3-yl)amino)pyridazine-4-carbonitrile]	< 5.00
